In patent US20150258043A1, “USE OF SPHINGOID LONG CHAIN BASES AND THEIR ANALOGS IN TREATING AND PREVENTING BACTERIAL INFECTIONS” (YEDA RESEARCH AND DEVELOPMENT CO. LTD., priority 2012, published 2015):

Legend:
[1] = system: P. aeruginosa strains 762, PA14 and ATCC 27853; assay: Pulmonary P. aeruginosa infection of CF and CerS2 null mice, inhalation treatment (bacteria in lung, sickness score); type: in vivo, mouse; conditions: CF mice; C16-ceramide and sphingosine at a 1:1 molar ratio, 1 h before infection, strain 762
Procedure: (A,B) The number of bacteria in the lungs and the overall sickness score (C,D) of WT, CerS2 null and CF mice 3-4 h after intranasal infection with 1×10^8 CFU of P. aeruginosa strains 762 (A,C) and CF mice with strains PA14 and ATCC 27853. Mice were inhaled with 0.9% NaCl or acid ceramidase 1 h prior (b.i.) to infection, or with sphingosine or FTY720 1 h before (b.i.) or 1 h after (a.i.) infection. Sickness score 4, severely affected (unresponsive animal); score 3 affected, (heavy breathing, low body temperature, ruffled fur) score 2, moderately affected (ruffled fur, heavy breathing); score 1, slightly affected (ruffled fur); score 0, unaffected (healthy appearance). Data are means±s.d., n=4.
Pulmonary infection of CF or CerS2 mice was achieved by intranasal application of P. aeruginosa strains 762, ATCC 27853 or PA14. Mice inhaled acid ceramidase, sphingosine, FTY720 or a combination of sphingosine and ceramide 1 hr before or after pulmonary infection. The number of bacteria in the lung was determined by culturing aliquots of lysed lungs on agar plates. Clinical symptoms of the infection were scored.
Inhalation was performed with a PARI Boy SX nebulizer (PARI GmbH, Starnberg, Germany). This nebulizer generates a fine aerosol mist by pumping the fluid with an air jet. The mice inhaled the aerosol via a mask that is part of an oral inhalation device for children (LL-Nebulizer); the mask was clipped at the sides to cover only the mouse's nose and the surrounding part of the face. […]
P. aeruginosa were grown for 14 to 14.5 h on fresh tryptic soy agar (TSA) plates (Becton Dickinson Biosciences, Germany). […] The bacterial OD was determined, and the bacteria were diluted in prewarmed H/S to a concentration of 1×10^8 CFU per 20 μL. […]
Lungs were removed, homogenised and lysed for 10 min in 5 mg/ml saponin to release intracellular bacteria. […] Bacterial counts (CFU) were counted after 18 h.

[2] = system: P. aeruginosa strain 762; assay: Incubation of bacteria with sphingosine and increasing C16-ceramide, CFU count; type: cell-based, Pseudomonas aeruginosa; conditions: in the presence of 10 μM sphingosine
Procedure: FIGS. 4A-D. The ceramide/sphingosine ratio regulates P. aeruginosa growth. (A) Representative image of two independent experiments (left hand panel) after addition of Sytox green (1 μM) for 30 min in the absence or presence of 50 μM sphingosine or 50 μM C16-ceramide (C16-Cer) in 1% DMSO. Fluorescent and thus permeabilised bacteria were quantified (right hand panel). (B-D) The inhibitory effect of sphingosine on the growth of P. aeruginosa strain 762 is decreased in vitro and in vivo by C16-ceramide. (B) Bacteria were incubated with 10 μM sphingosine, and increasing concentrations of C16-ceramide, and growth was determined by counting colony forming unit (CFU) after 24 hrs growth on LB agar plates. Number of bacteria in the lung (C) and sickness score (D) of CF mice or WT mice inhaled with either sphingosine or a combination of sphingosine and C16-ceramide 1 h before (b.i.) with 10^8 P. aeruginosa CFU strain 762. Data are means±s.d., n=3 in (A,B) and n=4 in (C,D).
The in vitro effect of sphingosine in the presence or absence of ceramide was determined by incubation of early-logarithmic grown P. aeruginosa with sphingosine or ceramide or both in different ratios and measurement of surviving bacteria measuring the number of colony forming units 24 and 48 hrs after treatment.
Bacteria were incubated in vitro with sphingosine and increasing amounts of C16-ceramide. […]

Structure (SMILES): CCCCCCCCCCCCC/C=C/[C@@H](O)[C@H](CO)NC(=O)CCCCCCCCCCCCCCC [C16-ceramide]
- effect of co-inhaled C16-ceramide on protection by sphingosine [1]: abrogated the protective effect of sphingosine and restored susceptibility to P. aeruginosa infection
- C16-ceramide concentration restoring bacterial growth [2]: ≥ 10 µM
